Test results as given in patent publication US9408820B2, “Broncholytic drug on the basis of prostaglandin” (OBSCHESTVO S OGRANICHENNOY OTVETSTVENNOST'YU “PROSTANIT …, priority 2012, dated 2016).

Key:
[1] = tested on: patients with bronchial asthma in unstable remission state; assay: broncholytic activity by inhalation in patients with bronchial asthma; type: in vivo, human
From the text: (§1) The present invention solves the task of creating of bronchial dilating drug on the basis of 1′,3′-dinitroglycerol ester of 11(S),15(S)-dihydroxy-9-keto-5Z,13E-prostadienoic acid (nitroproston). This drug is any form of nitroproston suitable for introduction into the respiratory tract by inhalation, for example in the form of isotonic solution. […] Therapeutic index measured in rodents is greater than 15000.
On the x-axis is the time after the introduction of the nitroproston, min; on the y-axis is the peak exhale velocity (l/min). The names of patients are abbreviated.
(§2) The tests were carried out on healthy volunteers (average age 42.6±3.9 years) and patients with bronchial asthma in unstable remission state (average age 48.3±5.1 years). Nitroproston was introduced via inhalation in the form of a solution in the physiological solution in doses of 5 and 7.5 μg per inhalation. To a person skilled in the art will not meet a difficulty to prepare the solution for inhalation, knowing the dose of the active substance and the volume of the solution, which will be determined by technical features used in the specific context of the inhaler. […] External respiratory function was determined with the help of automatic spiroanalyzer (VI 8911, Estonia). […] So, change the maximum 25% volume exhalation velocity ranged from 10.4 to 32.2% as compared to the original values. Changes in peak volumetric velocity of exhalation in patients who have received 7.5 micrograms nitroproston per inhalation, are presented at the FIG. 1.

healthy volunteers = assay: inhalation in healthy volunteers, external respiratory function; type: in vivo, human
Experimental: as §1, §2

guinea pig trachea = conditions: isolated guinea pig trachea; read-out: EC50, relaxation of the guinea pig trachea; cited from earlier work
individuals = conditions: in vivo; cited from earlier work
white outbred male mice [2] = assay: acute toxicity and therapeutic index in mice; type: in vivo; conditions: alcohol solution
Experimental: Experiments conducted on white outbred male mice (22±2 g weight). Nitroproston in the form of alcohol solution was injected intraperitoneal to the 10 mice in a maximum of 50 μl per dose of 215 mg/kg. The control group (10 animals) was injected with the same volume of pure ethyl alcohol. Animal health monitoring period was 14 days. Therapeutic index defined as the ratio of LD50 values (toxic dose) to the ED20 for change in blood pressure (pharmacological dose).

white outbred male mice [3] = assay: toxicity in repeated introduction in mice; type: in vivo; conditions: 50 and 500 μg/kg daily for 14 days
Experimental: Experiments conducted on white outbred male mice (22±2 g weight). Animals were divided into three groups of 10 animals each. Nitroproston (1% of alcoholic solution) was diluted with water and was injected in the volume 20 μl in two doses: 50 and 500 μg/kg. The control group was injected with equal volume of distilled water. The injections worked every day for 14 days. The animals were observed daily, measuring their weight, the intake of food and water. There have been observed no differences in the state and behavior of the animals between the control and experimental groups.

Row | Compound | bronchospasm test result ([1]; patients with bronchial asthma) | changes in the functions of the external respiration (healthy volunteers) | EC50 (guinea pig trachea) [nM] | side effect in individuals (individuals) | animal deaths (white outbred male mice [2]; 215 mg/kg intraperitoneal, 14 days observation) | acute toxicity assessment (white outbred male mice [2]; intraperitoneal, mice) | toxic effects on repeated introduction (white outbred male mice [3]) | parameters of external breath ([1]; 5 μg per inhalation) | side effects ([1]; 5 μg per inhalation) | external respiration indices ([1]; 7.5 μg per inhalation) | toxicity at therapeutic doses ([1]; 5-20 μg per inhalation) | peak volumetric velocity of exhalation ([1]; 7.5 micrograms per inhalation, within 360 minutes (FIG. 1)) | only side effect of the inhalation solution ([1]; inhalation solution) | bronchial dilation and side effects ([1]; isotonic solution, 7.5 micrograms per inhalation) | cough bouts ([1]; patients with asthma, inhalation) | cough bouts (healthy volunteers)
1 | CC(Cc1ccc(O)cc1)NCC(O)c1cc(O)cc(O)c1 (stereo not drawn) [Berotec, reference compound] | positive result | did not cause significant changes | – | – | – | – | – | – | – | – | – | – | – | – | – | –
2 | CCCCC[C@H](O)/C=C/[C@H]1[C@H](O)CC(=O)[C@@H]1C/C=C\CCCC(=O)O [natural prostaglandin E2, prostaglandin E2, reference compound] | – | – | 140 ± 80 | strong cough reflex | – | – | – | – | – | – | – | – | – | – | – | –
3 | CCCCC[C@H](O)/C=C/[C@H]1[C@@H](O)CC(=O)[C@@H]1C/C=C\CCCC(=O)OC(CO[N+](=O)[O-])CO[N+](=O)[O-] [nitroproston, 1′,3′-dinitroglycerol ester of 11(S),15(S)-dihydroxy-9-keto-5Z,13E-prostadienoic acid] | – | did not cause significant changes | 7 | – | animal deaths have not observed | low-toxic compound | no toxic effects | improved slightly | have not noticed any side effects | have been improved | non-toxic | strongest increase | transient dry mouth | prolonged dilation of bronchus without side effects | no cough bouts | no cough bouts
